Experimental findings from PubChem BioAssay (NCI) are described below.

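How tested: cells in 96-well plates exposed to compound for 48 hours at five concentrations. GI50 is the concentration that inhibits growth by half. The concentration for full growth arrest is given as TGI.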

Some test systems named below: OVCAR-3 ovarian; CCRF-CEM leukemia; MDA-MB-231 breast; SF-268 CNS; SNB-19 CNS; LOX IMVI melanoma; RPMI-8226 leukemia; UACC-257 melanoma; NCI-H226 lung; KM12 colon.
What all share (assay): NCI tumour cell line growth inhibition, 48 h

Take `Oc1ccc(-c2nc(-c3cccnc3)c(-c3ccc(Cl)cc3)[nH]2)cc1O`: the TGI was 14.5 µM with OVCAR-3 ovarian; more than 100 µM in the test on CCRF-CEM leukemia; 47.8 µM in the test on MDA-MB-231 breast; 39.7 µM in the test with SF-268 CNS; 27.1 µM with SNB-19 CNS; 30.1 µM with LOX IMVI melanoma. Moreover, the TGI was more than 100 µM in the test with RPMI-8226 leukemia, 28.3 µM with UACC-257 melanoma, 37.1 µM with NCI-H226 lung and 21.2 µM in the test on KM12 colon.
For the compound `O=C(Nc1cccc(-n2ccc3c(NC(=O)c4ccccc4)nccc32)c1)Nc1cc(C(F)(F)F)cc(C(F)(F)F)c1`, the GI50 in the test with OVCAR-3 ovarian was 1.28 µM; in the test with CCRF-CEM leukemia, 1.76 µM; in the test on MDA-MB-231 breast, 1.42 µM; with SF-268 CNS, 2.71 µM; with SNB-19 CNS it was 2.32 µM; in the test on LOX IMVI melanoma, 2.12 µM. The GI50 was 1.13 µM in the test on RPMI-8226 leukemia, 2.45 µM in the test with UACC-257 melanoma, 1.66 µM in the test with NCI-H226 lung and 1.53 µM in the test with KM12 colon. The TGI is 3.18 µM in the test with OVCAR-3 ovarian; more than 50 µM in the test with CCRF-CEM leukemia; 4.73 µM with MDA-MB-231 breast; more than 50 µM with SF-268 CNS; more than 50 µM with SNB-19 CNS; more than 50 µM with LOX IMVI melanoma. Further, the TGI in the test on RPMI-8226 leukemia amounted to 2.85 µM; in the test with UACC-257 melanoma, 15.2 µM; with NCI-H226 lung, 16.4 µM; in the test with KM12 colon, 4.7 µM.
With `CCCCCCCCOC1C(O)C(O)C(O)C(O)C12CO2` (stereo not given), the TGI in the test with OVCAR-3 ovarian, in the test on CCRF-CEM leukemia, with MDA-MB-231 breast, in the test on SF-268 CNS, with SNB-19 CNS and with LOX IMVI melanoma was more than 100 µM in each case. The TGI with RPMI-8226 leukemia, with UACC-257 melanoma, in the test on NCI-H226 lung and in the test on KM12 colon was more than 100 µM in each case.
On to `O=C(c1ccco1)N1CCCN(C(=O)c2ccco2)C1=S`, for which the TGI in the test on OVCAR-3 ovarian, in the test on CCRF-CEM leukemia, with MDA-MB-231 breast, in the test on SF-268 CNS, in the test with SNB-19 CNS and in the test with LOX IMVI melanoma was more than 100 µM in each case. Also, the TGI in the test on RPMI-8226 leukemia, with UACC-257 melanoma, with NCI-H226 lung and with KM12 colon was more than 100 µM in each case.
With `CCCN(CCCC(NC(C)=O)C(=O)NCc1ccccc1)C(=O)N(CCCl)N=O` (stereo not given), the TGI is 53.3 µM with OVCAR-3 ovarian; 76.8 µM in the test on CCRF-CEM leukemia; more than 100 µM in the test on MDA-MB-231 breast; 42.6 µM with SF-268 CNS; more than 84.9 µM in the test on SNB-19 CNS; 31.5 µM in the test on LOX IMVI melanoma. Besides, the TGI was 69 µM in the test on RPMI-8226 leukemia, 47.6 µM in the test on UACC-257 melanoma, 40.1 µM in the test with NCI-H226 lung and 42.3 µM in the test on KM12 colon.
Regarding `Cc1cnc2sn(-c3ccc(Oc4ccccc4)cc3)c(=O)c2c1`, the TGI with OVCAR-3 ovarian is 23.3 µM; in the test on CCRF-CEM leukemia, more than 100 µM; with MDA-MB-231 breast, 37.6 µM; in the test on SF-268 CNS, 38.2 µM; in the test with SNB-19 CNS, 46 µM; with LOX IMVI melanoma it was 81 µM. Besides, the TGI was more than 100 µM with RPMI-8226 leukemia, 43.7 µM in the test with UACC-257 melanoma, 47.6 µM in the test on NCI-H226 lung and 28 µM in the test with KM12 colon.
Take `C[C@]12CC[C@H]3[C@@H](CC=C4C[C@@H](N5CCCC5)CC[C@@]43C)[C@@H]1C[C@H](N1CCOCC1)[C@@H]2O`: the TGI is more than 100 µM in the test on OVCAR-3 ovarian; more than 100 µM with CCRF-CEM leukemia; more than 100 µM in the test with MDA-MB-231 breast; more than 100 µM in the test with SF-268 CNS; more than 100 µM with SNB-19 CNS; more than 10 µM in the test on LOX IMVI melanoma. The TGI in the test with RPMI-8226 leukemia, in the test with UACC-257 melanoma, with NCI-H226 lung and with KM12 colon was more than 100 µM in each case.
With `CN(C)CCNC(=O)c1cccc2c(NCCN(C)C)c3ccccc3nc12`, the TGI with OVCAR-3 ovarian was 7.63 µM; in the test with CCRF-CEM leukemia it was more than 100 µM; in the test with MDA-MB-231 breast it was 4.58 µM; in the test with SF-268 CNS, 11.2 µM; in the test on SNB-19 CNS it was 26.3 µM; with LOX IMVI melanoma, 4.75 µM. For the same compound, the TGI amounted to 7.92 µM in the test on RPMI-8226 leukemia, 17.3 µM with UACC-257 melanoma, 3.66 µM with NCI-H226 lung and 11.8 µM with KM12 colon.
Consider `Nc1nc(Cl)c(N)c(NCC2(CO)CC(OCc3ccccc3)C2)n1` (stereo not given), for which the TGI in the test on OVCAR-3 ovarian, with CCRF-CEM leukemia, with MDA-MB-231 breast, in the test with SF-268 CNS, in the test on SNB-19 CNS and with LOX IMVI melanoma was more than 100 µM throughout. The TGI in the test with RPMI-8226 leukemia, in the test on UACC-257 melanoma, in the test on NCI-H226 lung and with KM12 colon was more than 100 µM each time.
As for `O=C1CC2(c3ccccc3)ON=C(c3ccccc3)N2c2ccccc2N1` (stereo not given), the TGI in the test on OVCAR-3 ovarian, in the test with CCRF-CEM leukemia, in the test with MDA-MB-231 breast, with SF-268 CNS, in the test on SNB-19 CNS and in the test with LOX IMVI melanoma was more than 100 µM each time. The TGI in the test on RPMI-8226 leukemia, in the test with UACC-257 melanoma, with NCI-H226 lung and in the test with KM12 colon was more than 100 µM in each case.
As to `O=C1NC(SSC2=NNC3(C(=O)N2)c2ccccc2-c2ccccc23)=NNC12c1ccccc1-c1ccccc12`, the TGI with OVCAR-3 ovarian, in the test on CCRF-CEM leukemia, with MDA-MB-231 breast, with SF-268 CNS, in the test on SNB-19 CNS and in the test with LOX IMVI melanoma was more than 10 µM in each case. Besides, the TGI in the test on RPMI-8226 leukemia, in the test with UACC-257 melanoma, in the test on NCI-H226 lung and with KM12 colon was more than 10 µM throughout.
For `COC(=O)CCC(=O)NC1=C(Nc2ccc(OC)cc2)C(=O)c2ccccc2C1=O`, the TGI was 12.6 µM with OVCAR-3 ovarian; more than 85.2 µM with CCRF-CEM leukemia; 27.3 µM with MDA-MB-231 breast; 98.2 µM with SF-268 CNS; 37.7 µM with SNB-19 CNS; 16.1 µM with LOX IMVI melanoma. Moreover, the TGI was 75.2 µM in the test with RPMI-8226 leukemia, 16.1 µM in the test with UACC-257 melanoma, 35.3 µM in the test with NCI-H226 lung and 45.5 µM in the test with KM12 colon.
As for `Nn1c(COc2cccc(OCc3n[nH]c(=S)n3N)c2)n[nH]c1=S`, the TGI in the test on OVCAR-3 ovarian, in the test with CCRF-CEM leukemia, with MDA-MB-231 breast, in the test on SF-268 CNS, in the test with SNB-19 CNS and in the test on LOX IMVI melanoma was more than 100 µM in each case. Further, the TGI in the test on RPMI-8226 leukemia, with UACC-257 melanoma, in the test with NCI-H226 lung and with KM12 colon was more than 100 µM in each case.
For `CC1(C)N=C(C(N)=O)c2ncn(N)c2N1`, the TGI in the test on OVCAR-3 ovarian, with CCRF-CEM leukemia, in the test with MDA-MB-231 breast, with SF-268 CNS, in the test with SNB-19 CNS and with LOX IMVI melanoma was more than 100 µM throughout. Besides, the TGI with RPMI-8226 leukemia, in the test with UACC-257 melanoma, with NCI-H226 lung and in the test on KM12 colon was more than 100 µM throughout.
Turning to `Cc1ccsc1/C=N/Nc1nc2ccccc2s1`, the TGI is 60.7 µM with OVCAR-3 ovarian; 28.8 µM in the test with CCRF-CEM leukemia; 27.5 µM in the test with MDA-MB-231 breast; 66.7 µM in the test on SF-268 CNS; 26.9 µM in the test with SNB-19 CNS; more than 100 µM in the test with LOX IMVI melanoma. The TGI in the test on RPMI-8226 leukemia is 72.2 µM; in the test on UACC-257 melanoma it was 51.4 µM; in the test on NCI-H226 lung, 51.9 µM; in the test on KM12 colon it was 74.6 µM.
Take `O=S(=O)(c1ccccc1)n1c2ccc(Br)cc2c2nc3ccccc3nc21`: the TGI in the test on OVCAR-3 ovarian, with CCRF-CEM leukemia, in the test on MDA-MB-231 breast, in the test on SF-268 CNS, with SNB-19 CNS and with LOX IMVI melanoma was more than 100 µM in each case. The TGI with RPMI-8226 leukemia, in the test on UACC-257 melanoma, with NCI-H226 lung and in the test on KM12 colon was more than 100 µM each time.
As for `CCCCc1ccc(Nc2nc3c(ncn3C3CC(O)C(CN=[N+]=[N-])O3)c(=O)[nH]2)cc1` (stereo not given), the TGI in the test on OVCAR-3 ovarian, with CCRF-CEM leukemia, with MDA-MB-231 breast, in the test with SF-268 CNS, in the test on SNB-19 CNS and in the test with LOX IMVI melanoma was more than 100 µM throughout. In addition, the TGI with RPMI-8226 leukemia, in the test on UACC-257 melanoma, in the test on NCI-H226 lung and with KM12 colon was more than 100 µM throughout.
As to `CCOC(=O)c1ccc(Nc2c3c(nc4ccccc24)CCCC3)cc1`, the TGI in the test on OVCAR-3 ovarian, in the test with CCRF-CEM leukemia, with MDA-MB-231 breast, in the test on SF-268 CNS, in the test with SNB-19 CNS and in the test on LOX IMVI melanoma was more than 100 µM in each case. For the same compound, the TGI in the test with RPMI-8226 leukemia, in the test on UACC-257 melanoma, in the test on NCI-H226 lung and in the test with KM12 colon was more than 100 µM throughout.
As to `S=C(NC1=NCC(CN2CCN(c3ccccc3)CC2)O1)Nc1ccccc1` (stereo not given), the TGI was more than 100 µM in the test with OVCAR-3 ovarian; more than 100 µM with CCRF-CEM leukemia; more than 100 µM with MDA-MB-231 breast; more than 100 µM in the test with SF-268 CNS; more than 100 µM in the test on SNB-19 CNS; 61.8 µM with LOX IMVI melanoma. Moreover, the TGI in the test with RPMI-8226 leukemia, in the test on UACC-257 melanoma, with NCI-H226 lung and with KM12 colon was more than 100 µM in each case.
